This is an account of results in US20100160339A1, “TREATING PANCREATITIS” (MAYO FOUNDATION FOR MEDICAL EDUCATION AND RESEARCH, priority 2007, published 2010).

One test concerns Src. In words: Cortactin tyrosine phosphorylation in pancreatic acini suprastimulated with 10 nM CCK (immunoprecipitation, 4G10 western blot). Format: cell-based, mice. As to the method:
(§1) Acini were harvested in a buffer containing 20 mM HEPES (pH 7.4), 120 mM NaCl, 5 mM KCl, 1 mM MgCl2, 1 mM CaCl2, 10 mM glucose, 10 mM sodium pyruvate, 0.1% bovine serum albumin, and 0.01% soybean trypsin inhibitor with 100 units/mL collagenase, as described elsewhere (Torgerson and McNiven, J. […] Viability prior to use was >95% by trypan blue exclusion. The harvested acini were used as described elsewhere (Torgerson and McNiven, J. Cell Sci., 111 (Pt. 19):2911-22 (1998)).
(§2) Acini or tissue were homogenized in a buffer containing 50 mM Tris (pH 7.2), 150 mM NaCl, 0.5 mM EDTA, 1 mM EGTA, 2 mM DTT, 1 mM sodium orthovanadate, 25 mM NaF, and 1% NP-40, using a protease inhibitor cocktail (Complete; Cat. # 1873580; Roche) to prevent proteolysis. […] After Western blotting using appropriate protocols and dilutions of antibodies ( 1/100000 for AB3, 1/1000 for 4G10, 1/500 for SC-18, 1/1000 for PY416, 1/5000 for Yes, 1/200 for H-12 (c-Src), 1/200 for fyn, and 1/200 for Lyn) as recommended by the manufacturer, band intensity was quantified using Adobe Photoshop 6.0, and backgrounds were subtracted for the appropriate lanes. […] Quantification was performed from two or more experiments. […]

A further test has as its system Src-cortactin complex. In words: Dissociation of the Src-cortactin complex after 10 nM CCK (Src immunoprecipitation, blot for cortactin). The class given is cell-based, mice. The following applies: 2 minutes, PP2 pre-incubation. How it is done:
Acini were harvested in a buffer containing 20 mM HEPES (pH 7.4), 120 mM NaCl, 5 mM KCl, 1 mM MgCl2, 1 mM CaCl2, 10 mM glucose, 10 mM sodium pyruvate, 0.1% bovine serum albumin, and 0.01% soybean trypsin inhibitor with 100 units/mL collagenase, as described elsewhere (Torgerson and McNiven, J. Cell Sci., 111 (Pt. 19):2911-22 (1998)) were filtered through a 70 μm mesh and kept at 37° C. for two hours before use during which time these were pre-incubated with 20 μM of inhibitors (PP2 or SU6656), if necessary. Viability prior to use was >95% by trypan blue exclusion. The harvested acini were used as described elsewhere (Torgerson and McNiven, J. Cell Sci., 111 (Pt. 19):2911-22 (1998)).
as §2

In test [1] the test system is pancreatic acini. In words: Basal relocation of cortactin and actin in suprastimulated acini (immunofluorescence). Particulars: 10 nM CCK. Format: cell-based, mice. How it is done:
as §1
(§3) Acini were plated on plain glass coverslips as described elsewhere (Torgerson and McNiven, J. Cell Sci., 111 (Pt. 19):2911-22 (1998)), fixed with 2% paraformaldehyde, and permeabilized with 0.6% Triton X-100. The acini were then blocked with 5% normal goat serum followed by incubation with the primary antibodies (4F11 diluted 1/1000, SC-18 diluted 1/300, or anti-Yes diluted 1/1000) for one hour at room temperature followed by washing and incubation with secondary antibodies ( 1/500) with or without rhodamine phalloidin (100 nM) for 30 minutes. The acini were then washed and mounted using Prolong gold. Acini with 6-12 cells were randomly chosen for imaging. The number of blebs was counted along with the number of cells, and expressed as bleb number per 100 cells. The final number expressed as mean±SEM was from at least three different experiments. […]

Test [2] deals with pancreatic acini. In words: Suprastimulation-induced blebbing of acini (bleb number per 100 cells). Format: cell-based, mice. Particulars: 10 nM CCK, 94.2±4.1% without inhibitor, mean±SEM. How it is done: as §1, §3
Test [3] concerns suprastimulation-induced pancreatitis. Briefly: Caerulein-induced pancreatitis in vivo. Details: species or system mice. From the text:
Male 100-120 gm Sprauge Dawley (Harlan Laboratories, Indianapolis, Ind.) mice that were housed and fed under standard conditions were used. Caerulein, the CCK analog, was obtained from Research Plus (Bayonne, N.J.). Antibodies to phosphotyrosine (4G10) and cortactin (4F11) antibodies were obtained from Upstate (Charlottesville, Va.). Pan Src antibody (SC-18), Fyn (SC-16) and c-Src antibody H-12 were obtained from Santa Cruz (Santa Cruz, Calif.), and active Src (PY416), Yes and Lyn antibodies were obtained from Transduction Labs (Lexington, Ky.). Polyclonal antibody to cortactin (AB3) was produced as described elsewhere (Cao et al., Mol. Cell Biol., 23(6):2162-2170 (2003)). Secondary antibodies for immunofluorescence (Alexa 488 and Alexa 594) and Prolong gold were obtained from Invitrogen Corporation (Carlsbad, Calif.). Secondary antibodies for western blotting (goat anti-rabbit and goat anti-mouse HRP) were obtained from Affinity Bioreagents (Golden, Colo.). Collagenase type IV was obtained from Worthington Biochemical Corporation (Lakewood, N.J.). PP2 and SU6656 were obtained from Calbiochem (San Diego, Calif.) and were dissolved as a 1000× stock in DMSO. All other reagents were purchased from Sigma.
Animals (6 animals in each group) were given a single intraperitoneal injection of saline (control) or caerulein (20 μg/kg) in saline as described elsewhere (Bhagat et al., Gastroenterology, 122(1): 156-165 (2002)). After 6 hours, blood and tissue samples were harvested and frozen or fixed in 4% formaldehyde. When used, PP2 was dissolved in DMSO and given at a dose of 3 mg/kg in a 0.1-mL volume intraperitoneally 30 minutes before caerulein. Animals pretreated with vehicle were given DMSO only.
Five μm sections of paraffin-embedded pancreas and lung were stained with hematoxylin/eosin (H&E). For immunohistochemistry of pancreas, 5 μm sections were made from OCT embedded tissue, fixed with 4% paraformaldehyde, and immunostained as described herein. Serum amylase activity was measured colorimetrically using the Phadebas assay (Pharmacia Diagnostics, Portage, Mich.). Edema was measured by subtracting the dry weight from the wet weight and presented as a percentage of wet weight.
The results reported represent the mean±SEM of values obtained from three or more experiments and compared using Student's t test when the data consisted of only two groups or ANOVA when comparing three or more groups. If ANOVA indicated a significant difference, the data were analyzed by using Tukey's method as a post-hoc test for the difference between groups. A p value of 0.05 was considered significant.

Entries after “also recorded” stand apart in the source; their conditions may differ.

As for `CC(C)(C)n1nc(-c2ccc(Cl)cc2)c2c(N)ncnc21` [PP2], the cortactin phosphorylation result in the test on Src (acini pre-incubated with PP2 at 20 μM) is recorded as “completely prevented cortactin phosphorylation”. The “dissociation of the Src-cortactin complex” value with Src-cortactin complex was “prevented”. The “basal relocation of cortactin and actin” value with pancreatic acini [1] (PP2 20 μM) is “prevented this basal relocation of cortactin; also recorded: prevented the basal relocation of cortactin”. The compound also registered a blebbing in the test with pancreatic acini [2] (PP2 20 μM) of 16.9±6.0%. For the same compound, the “cortactin phosphorylation in pancreas in vivo” value in test [3] (3 mg/kg PP2 intraperitoneally 30 minutes before 20 μg/kg caerulein, preliminary data) is “adequate to inhibit cortactin phosphorylation”. In test [3] (PP2 3 mg/kg ip 30 minutes before caerulein 20 μg/kg, 6 hours, CER+Veh 4.8±0.5 fold, p <0.02), the “increase in serum amylase over controls” value is given as 2.4±0.2 fold. The “pancreatic edema as measured by water content” value in test [3] (PP2 3 mg/kg ip 30 minutes before caerulein 20 μg/kg, 6 hours, CER+Veh 81.1±0.8%, control 75.1±0.5%, p<0.05) was found to be 76.7±0.6%. Also, the “morphology of the pancreas (vacuolation, blebbing-like fragmentation, apoptosis, interstitial edema, inflammatory cells; H&E)” value in test [3] (PP2 3 mg/kg ip 30 minutes before caerulein, 6 hours) was “dramatically prevented these phenomena”. For the same compound, the “basolateral relocation of actin and cortactin in pancreas cryosections” value in test [3] (PP2 3 mg/kg prophylactically) is recorded as “prevented this basolateral relocation”.

Take `CN(C)S(=O)(=O)c1ccc2c(c1)/C(=C/c1cc3c([nH]1)CCCC3)C(=O)N2` [SU6656]: the cortactin phosphorylation entry with Src (acini pre-incubated with SU6656 at 10 μM) is “completely prevented cortactin phosphorylation”. The “basal relocation of cortactin and actin” value in the test on pancreatic acini [1] (SU6656 10 μM) was “prevented the basal relocation of cortactin”. The blebbing in the test with pancreatic acini [2] (SU6656 10 μM) is recorded as 21.0±6.0%.
